Source: the NIST ThermoML archive (doi:10.1016/j.fluid.2010.02.021)

Assay: xn = mol fraction of the nth substance listed
Details: 101.3 kPa, Liquid, Falling or rolling sphere viscometry

CCn1cc[n+](C)c1.O=S(=O)([N-]S(=O)(=O)C(F)(F)F)C(F)(F)F + O
viscosity [mPa·s]
Details | x2 = 0 | x2 = 0.1074 | x2 = 0.2228 | x2 = 0.3027
303.15 K | 28.6 | 23.8 | 19.4 | 16.4
323.15 K | 15.9 | 13.6 | 11.4 | 9.9
